These results are taken from paper PMC11643744, “New Conjugates of Vancomycin with Cell-Penetrating Peptides—Synthesis, Antimicrobial Activity, Cytotoxicity, and BBB Permeability Studies” (Molecules, 2024).

Usually Papp stands for the rate of passage across a membrane or cell layer, normalised by area and donor concentration.

One data set has as its system S. aureus ATCC 29213. In words: microbe, parasite or virus in culture. In kind it is cell-based, Staphylococcus aureus. The note with it: reference strain; for MIC: read-out: MIC S. aureus ATCC 29213. On the procedure:
(§1) The antimicrobial activity of the synthesized compounds was evaluated against four reference bacterial strains: Staphylococcus aureus (ATCC 29213), Enterococcus faecalis (ATCC 29212), Escherichia coli (ATCC 25922), and Pseudomonas aeruginosa (ATCC 27853), which are commonly used for determining antibacterial activity. In addition, two clinical strains, S. aureus (MRSA) and E. faecium (VRE), were included in the study. The bacterial strains were inoculated from Selectrol discs (Biomaxima SA, Lublin, Poland) onto blood agar (Graso Biotech, Starogard Gdański, Poland) and incubated at 37 °C for 24 h. Before testing, the strains were cultured aerobically on blood agar at 37 °C for 24 h.
(§2) The susceptibility of microorganisms to the synthesized compounds was determined using the broth microdilution assay, following the guidelines outlined by CLSI [30]. The final concentrations of the tested compounds in Mueller–Hinton broth, in 96-well plates (VWR International Sp. z o.o., Gdańsk, Poland), ranged from 0.125 to 256 mg/L. To prepare the bacterial suspension, bacteria from the overnight culture on blood agar were diluted in sterile 0.9% NaCl to achieve a turbidity equivalent to a 0.5 McFarland standard. The adjusted inoculum suspension was further diluted in Mueller–Hinton broth so that after inoculation, each well contained approximately 5 × 10^5 CFU/mL. Aliquots (5 µL) of bacterial suspension were added to each solution. The sterility control (containing the broth) and the growth control (containing the reference strain in broth without the tested compound) were also set up. The antibiotics vancomycin and gentamicin were used as a control. The plates were incubated at 37 °C under aerobic conditions. The results are expressed as the MIC of the tested compounds, which was defined as the lowest concentration at which no visible growth of bacteria (no turbidity) was observed. The assay was performed in triplicate.

In data set [1] the test system is S. aureus MRSA (clinical isolate no 203). The data set can be described thus: microbe, parasite or virus in culture. In kind it is cell-based, Staphylococcus aureus. The note with it: methicillin-resistant clinical isolate no 203; read-out: MIC S. aureus MRSA. The protocol:
as §1, §2

For the next data set, the system named is E. faecalis ATCC 29212. The data set can be described thus: microbe, parasite or virus in culture. The note with it: reference strain; for MIC: read-out: MIC E. faecalis ATCC 29212. In kind it is cell-based, Enterococcus faecalis. On the procedure:
as §1, §2

The next data set relates to E. coli ATCC 25922. The data set can be described thus: microbe, parasite or virus in culture. In kind it is cell-based, Escherichia coli. The settings on record: reference strain. On the procedure:
as §1, §2

Data set [2] concerns normal human fibroblasts, BJ line (CRL-2522). In words: Neutral red cytotoxicity assay. The settings on record: 24 h. On the procedure:
Normal human fibroblasts, BJ line (CRL-2522™), Eagle’s Minimum Essential Medium (EMEM), and fetal bovine serum (FBS) were obtained from ATCC (Manassas, VA, USA). Cells were grown following ATCC guidelines in an EMEM medium supplemented with 10% FBS at 37 °C in a humidified atmosphere of 95% air and 5% CO2 in a HeraCell 150 incubator (Heraeus, Hanau, Germany).
The assay was performed as per previously published protocols with slight modifications. In brief, BJ cells were plated in 96-well tissue culture plates (Nest Scientific Biotechnology, Wuxi, China) at a density of 6 × 10^3 cells per well and allowed to attach for 24 h in EMEM supplemented with 10% FBS. After the incubation period, the medium was removed, and 10% dimethyl sulfoxide (DMSO)-treated cells (Sigma-Aldrich, St. Louis, MO, USA) were used as a positive control, while nontreated cells served as a negative control.
The cells were treated with peptides suspended in EMEM medium supplemented with 10% FBS and incubated for 24 h at 37 °C in a humidified atmosphere of 95% air and 5% CO2. After the incubation, the supernatants were discarded and replaced with 100 µL of non-supplemented EMEM containing 0.33% neutral red (Sigma-Aldrich) diluted 1:40. The cells were incubated for an additional 2 h at 37 °C. Following incubation, the neutral red medium was removed, and the cells were washed with 100 µL of phosphate-buffered saline (PBS) per well.
To extract the dye into the solution, the cells were treated with 150 µL of a solution containing 50% ethanol (Alchem, Torun, Poland), 49% distilled H2O, and 1% acetic acid (Alchem, Torun, Poland) and incubated under shaking at 37 °C for 10 min. Absorbance was measured at 540 nm using a Synergy H1 plate reader (BioTek Instruments, Winooski, VT, USA). The assay was performed in triplicate to ensure reproducibility.

A further data set can be described thus: PAMPA-BBB assay. The settings on record: 20 h incubation; for R, mass retention: mean ± SEM; for Papp at 20 h, 20 µM: pig, PAMPA, pH 7.4, Pe, effective permeability coefficient, pH 7.4, mean ± SEM. The source says:
This assay utilized a 96-well plate assembly consisting of a filter plate pre-coated with polar brain lipids (donor plate) and a receiver plate (acceptor plate). The phospholipid mixture used to coat the membrane was extracted from porcine polar brain lipids, with the following composition: 12.6% phosphatidylcholine, 33.1% phosphatidylethanolamine, 18.5% phosphatidylserine, 4.1% phosphatidylinositol, 0.8% phosphatidic acid, and 30.9% of other compounds, including cerebrosides, sulfatides, and pigments.
In each well of the donor filtration plate (Multiscreen Filter Plate, PVDF with a pore size of 0.45 µm), 5 µL of the phospholipid mixture in n-dodecane (20 mg/mL) was carefully applied to form the artificial membrane. After coating, 200 µL of phosphate-buffered saline (PBS at pH 7.4) containing 5% dimethyl sulfoxide (DMSO) as a co-solvent, and the test compound (at a concentration of 20 µM) was added to each well of the donor plate (in triplicate). […] The plate lid was then replaced and the resulting assembled donor–acceptor plates were incubated at room temperature for 20 h. After this time, the donor plate was removed and solutions from each well of both acceptor and donor plates were collected for further analysis. The concentrations of the tested compounds were determined by LC-MS. The analysis was conducted by UHPLC-MS system (Shimadzu Nexera X2 with LCMS-2020 detector) using a ReproSil Pure 120 ODS-3 column (Dr. Maisch GmbH, 100 × 2 mm, 2.4 µm particle size) with several gradients of ACN with 0.1% FA and 0.05% TFA at a flow rate of 0.3 mL/min. The eluted solution was monitored by an ESI-MS detector operated in a selected ion monitoring mode (SIM). […] CE=CD×VD+CA×VA/VD+VA
For orientation: The PAMPA barrier holds no transporters, so it reflects passive diffusion.

Data set [3] relates to E. faecium VRE (clinical isolate UCK 7979384). In words: microbe, parasite or virus in culture. In kind it is cell-based. The settings on record: vancomycin-resistant clinical isolate UCK 7979384; read-out: MIC E. faecium VRE. The protocol:
as §1, §2

≈ marks a conversion by molar mass, not a printed value.

Turning to `CC[C@H](C)[C@H](NC(=O)[C@H](CCCCN)NC(=O)[C@H](CCCCN)NC(=O)[C@H](C)NC(=O)[C@H](CC(C)C)NC(=O)[C@H](C)NC(=O)[C@H](C)NC(=O)[C@H](CC(C)C)NC(=O)[C@H](C)NC(=O)[C@H](CCCCN)NC(=O)[C@H](CC(C)C)NC(=O)[C@H](CC(N)=O)NC(=O)[C@@H](NC(=O)[C@H](CCCCN)NC(=O)CNC(=O)[C@H](CC(C)C)NC(=O)[C@H](CC(C)C)NC(=O)[C@H](Cc1ccc(O)cc1)NC(=O)CNC(=O)[C@H](C)N)[C@@H](C)CC)C(=O)N[C@@H](CC(C)C)C(N)=O` [compound 1, TP10], the MIC is recorded as 14.7 µM (≈ 32.1 µg/mL) in the data set on S. aureus ATCC 29213, 3.67 µM (≈ 8.01 µg/mL) in data set [1], 29.3 µM (≈ 63.9 µg/mL) in the data set with E. faecalis ATCC 29212 and 14.7 µM (≈ 32.1 µg/mL) against E. coli ATCC 25922.

Take `CN[C@H](CC(C)C)C(=O)N[C@H]1C(=O)N[C@@H](CC(N)=O)C(=O)N[C@H]2C(=O)N[C@H]3C(=O)N[C@H](C(=O)N[C@H](C(=O)NCCOCCOCCOCCn4cc(C(=O)N[C@@H](Cc5ccc(O)cc5)C(=O)N[C@@H](C)C(=O)N[C@@H](CCCNC(=N)N)C(=O)N[C@@H](C)C(=O)N[C@@H](C)C(=O)N[C@@H](C)C(=O)N[C@@H](CCCNC(=N)N)C(=O)N[C@@H](CCC(N)=O)C(=O)N[C@@H](C)C(=O)N[C@@H](CCCNC(=N)N)C(=O)N[C@@H](C)C(N)=O)nn4)c4cc(O)cc(O)c4-c4cc3ccc4O)[C@H](O)c3ccc(c(Cl)c3)Oc3cc2cc(c3O[C@@H]2O[C@H](CO)[C@@H](O)[C@H](O)[C@H]2O[C@H]2C[C@](C)(N)[C@H](O)[C@H](C)O2)Oc2ccc(cc2Cl)[C@H]1O` [compound 10]: the “concentration above which cytotoxicity was shown” value in data set [2] was “above 16 µg/mL”. Also, in “PAMPA-BBB assay”, the “R, mass retention” value is given as 2.0 ± 0.6% and the Papp at 20 h, 20 µM was found to be 0.01 ± 0.003 ×10⁻⁶ cm/s.

For the molecule `CN[C@H](CC(C)C)C(=O)N[C@H]1C(=O)N[C@@H](CC(N)=O)C(=O)N[C@H]2C(=O)N[C@H]3C(=O)N[C@H](C(=O)N[C@H](C(=O)O)c4cc(O)cc(O)c4-c4cc3ccc4O)[C@H](O)c3ccc(c(Cl)c3)Oc3cc2cc(c3O[C@@H]2O[C@H](CO)[C@@H](O)[C@H](O)[C@H]2O[C@H]2C[C@](C)(NC(=O)CCOCCOCCOCCOCCn3cc(C(=O)N[C@@H](Cc4ccc(O)cc4)C(=O)N[C@@H](C)C(=O)N[C@@H](CCCNC(=N)N)C(=O)N[C@@H](C)C(=O)N[C@@H](C)C(=O)N[C@@H](C)C(=O)N[C@@H](CCCNC(=N)N)C(=O)N[C@@H](CCC(N)=O)C(=O)N[C@@H](C)C(=O)N[C@@H](CCCNC(=N)N)C(=O)N[C@@H](C)C(N)=O)nn3)[C@H](O)[C@H](C)O2)Oc2ccc(cc2Cl)[C@H]1O` [compound 11], in data set [2], the “concentration above which cytotoxicity was shown” value is listed as over 64 µg/mL. In “PAMPA-BBB assay”, the “R, mass retention” value was found to be 32.7 ± 0.9% and the Papp at 20 h, 20 µM came out at 0.066 ± 0.007 ×10⁻⁶ cm/s.

For `CN[C@H](CC(C)C)C(=O)N[C@H]1C(=O)N[C@@H](CC(N)=O)C(=O)N[C@H]2C(=O)N[C@H]3C(=O)N[C@H](C(=O)N[C@H](C(=O)NCCSSCCn4cc(C(=O)N[C@@H](Cc5ccc(O)cc5)C(=O)N[C@@H](C)C(=O)N[C@@H](CCCNC(=N)N)C(=O)N[C@@H](C)C(=O)N[C@@H](C)C(=O)N[C@@H](C)C(=O)N[C@@H](CCCNC(=N)N)C(=O)N[C@@H](CCC(N)=O)C(=O)N[C@@H](C)C(=O)N[C@@H](CCCNC(=N)N)C(=O)N[C@@H](C)C(N)=O)nn4)c4cc(O)cc(O)c4-c4cc3ccc4O)[C@H](O)c3ccc(c(Cl)c3)Oc3cc2cc(c3O[C@@H]2O[C@H](CO)[C@@H](O)[C@H](O)[C@H]2O[C@H]2C[C@](C)(N)[C@H](O)[C@H](C)O2)Oc2ccc(cc2Cl)[C@H]1O` [compound 12], in data set [2] (across the tested concentration range), the “effect on cell viability” value is on record as “did not significantly affect cell viability”. Further, in “PAMPA-BBB assay”, the “R, mass retention” value came out at 12.7 ± 2.2% and the Papp at 20 h, 20 µM worked out at 0.036 ± 0.004 ×10⁻⁶ cm/s.

Take `C#CC(=O)N[C@@H](CCCNC(=N)N)C(=O)N[C@@H](CCCNC(=N)N)C(=O)N[C@@H](CCCNC(=N)N)C(=O)N[C@@H](CCCNC(=N)N)C(=O)N[C@@H](CCCNC(=N)N)C(=O)N[C@@H](CCCNC(=N)N)C(=O)N[C@@H](CCCNC(=N)N)C(=O)N[C@@H](CCCNC(=N)N)C(=O)N[C@@H](CCCNC(=N)N)C(N)=O` [compound 14]: the MIC with S. aureus ATCC 29213 was 21.7 µM (≈ 32 µg/mL); in data set [1], 2.71 µM (≈ 4 µg/mL); with E. faecalis ATCC 29212 it was 87 µM (≈ 128 µg/mL); in data set [3], 21.7 µM (≈ 32 µg/mL); in the data set with E. coli ATCC 25922, 43 µM (≈ 63.4 µg/mL). The “R, mass retention” value in the data set “PAMPA-BBB assay” is listed as 8.0 ± 1.2%.

In the case of `CN[C@H](CC(C)C)C(=O)N[C@H]1C(=O)N[C@@H](CC(N)=O)C(=O)N[C@H]2C(=O)N[C@H]3C(=O)N[C@H](C(=O)N[C@H](C(=O)NCCSSCCn4cc(C(=O)N[C@@H](CCCNC(=N)N)C(=O)N[C@@H](CCCNC(=N)N)C(=O)N[C@@H](CCCNC(=N)N)C(=O)N[C@@H](CCCNC(=N)N)C(=O)N[C@@H](CCCNC(=N)N)C(=O)N[C@@H](CCCNC(=N)N)C(=O)N[C@@H](CCCNC(=N)N)C(=O)N[C@@H](CCCNC(=N)N)C(=O)N[C@@H](CCCNC(=N)N)C(N)=O)nn4)c4cc(O)cc(O)c4-c4cc3ccc4O)[C@H](O)c3ccc(c(Cl)c3)Oc3cc2cc(c3O[C@@H]2O[C@H](CO)[C@@H](O)[C@H](O)[C@H]2O[C@H]2C[C@](C)(N)[C@H](O)[C@H](C)O2)Oc2ccc(cc2Cl)[C@H]1O` [compound 17], in the data set on S. aureus ATCC 29213, the “MIC S. aureus ATCC 29213” value was found to be 4 µg/mL (≈ 1.3 µM) and the MIC worked out at 1.30 µM (≈ 4.01 µg/mL). In the data set on E. faecalis ATCC 29212, the “MIC E. faecalis ATCC 29212” value worked out at 8 µg/mL (≈ 2.59 µM) and the MIC was 2.59 µM (≈ 7.99 µg/mL). Besides, in the data set on E. coli ATCC 25922, the MIC is over 83 µM and the “MIC E. coli ATCC 25922” value is over 256 µg/mL. The “R, mass retention” value in the data set “PAMPA-BBB assay” is listed as 20.7 ± 0.3%.
